Laboratory results published in PubChem BioAssay (NCI).
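Interpolation was linear, between the two tested concentrations surrounding the appropriate level; five concentrations were tested over 48 hours in 96-well plates. The concentration for 50% growth inhibition is given as GI50. TGI: concentration producing complete growth inhibition.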

Legend:
Assay in all cases: NCI-60 cell line screen, 48 h
786-0 renal = tested on: 786-0 renal
A498 renal = tested on: A498 renal
A549 NSCLC = tested on: A549 NSCLC
ACHN renal = tested on: ACHN renal
BT-549 breast = tested on: BT-549 breast
CAKI-1 renal = tested on: CAKI-1 renal
CCRF-CEM leukemia = tested on: CCRF-CEM leukemia
COLO 205 colon = tested on: COLO 205 colon
DU-145 prostate = tested on: DU-145 prostate
EKVX NSCLC = tested on: EKVX NSCLC
HCC-2998 colon = tested on: HCC-2998 colon
HCT-116 colon = tested on: HCT-116 colon
HCT-15 colon = tested on: HCT-15 colon
HL-60(TB) leukemia = tested on: HL-60(TB) leukemia
HOP-62 NSCLC = tested on: HOP-62 NSCLC
HOP-92 NSCLC = tested on: HOP-92 NSCLC
HT29 colon = tested on: HT29 colon
IGROV1 ovarian = tested on: IGROV1 ovarian
K-562 leukemia = tested on: K-562 leukemia
KM12 colon = tested on: KM12 colon
LOX IMVI melanoma = tested on: LOX IMVI melanoma
M14 melanoma = tested on: M14 melanoma
MCF7 breast = tested on: MCF7 breast
MDA-MB-231 breast = tested on: MDA-MB-231 breast
MDA-MB-435 = tested on: MDA-MB-435
MOLT-4 leukemia = tested on: MOLT-4 leukemia
NCI-H226 lung = tested on: NCI-H226 lung
NCI-H23 lung = tested on: NCI-H23 lung
NCI-H460 lung = tested on: NCI-H460 lung
NCI-H522 lung = tested on: NCI-H522 lung
NCI/ADR-RES ovarian = tested on: NCI/ADR-RES ovarian
OVCAR-3 ovarian = tested on: OVCAR-3 ovarian
OVCAR-4 ovarian = tested on: OVCAR-4 ovarian
OVCAR-5 ovarian = tested on: OVCAR-5 ovarian
OVCAR-8 ovarian = tested on: OVCAR-8 ovarian
PC-3 prostate = tested on: PC-3 prostate
RPMI-8226 leukemia = tested on: RPMI-8226 leukemia
RXF 393 renal = tested on: RXF 393 renal
SF-268 CNS = tested on: SF-268 CNS
SF-295 CNS = tested on: SF-295 CNS
SF-539 CNS = tested on: SF-539 CNS
SK-MEL-2 melanoma = tested on: SK-MEL-2 melanoma
SK-MEL-28 melanoma = tested on: SK-MEL-28 melanoma
SK-MEL-5 melanoma = tested on: SK-MEL-5 melanoma
SK-OV-3 ovarian = tested on: SK-OV-3 ovarian
SN12C renal = tested on: SN12C renal
SNB-75 CNS = tested on: SNB-75 CNS
SR leukemia = tested on: SR leukemia
SW-620 colon = tested on: SW-620 colon
T-47D breast = tested on: T-47D breast
TK-10 renal = tested on: TK-10 renal
U251 CNS = tested on: U251 CNS
UACC-257 melanoma = tested on: UACC-257 melanoma
UACC-62 melanoma = tested on: UACC-62 melanoma
UO-31 renal = tested on: UO-31 renal
HS 578T breast = tested on: HS 578T breast
MALME-3M melanoma = tested on: MALME-3M melanoma
SNB-19 CNS = tested on: SNB-19 CNS

## O=S(=O)(OI(O)CC(F)(F)F)C(F)(F)F
786-0 renal
  TGI: > 100000 nM
A498 renal
  TGI: > 100000 nM
A549 NSCLC
  TGI: > 100000 nM
ACHN renal
  TGI: > 100000 nM
BT-549 breast
  TGI: > 100000 nM
CAKI-1 renal
  TGI: > 100000 nM
CCRF-CEM leukemia
  TGI: > 100000 nM
COLO 205 colon
  TGI: > 100000 nM
DU-145 prostate
  TGI: > 100000 nM
EKVX NSCLC
  TGI: > 100000 nM
HCC-2998 colon
  TGI: > 100000 nM
HCT-116 colon
  TGI: > 100000 nM
HCT-15 colon
  TGI: > 100000 nM
HL-60(TB) leukemia
  TGI: > 100000 nM
HOP-62 NSCLC
  TGI: > 100000 nM
HOP-92 NSCLC
  TGI: > 100000 nM
HT29 colon
  TGI: > 100000 nM
IGROV1 ovarian
  TGI: > 100000 nM
K-562 leukemia
  TGI: > 100000 nM
KM12 colon
  TGI: > 100000 nM
LOX IMVI melanoma
  TGI: > 100000 nM
M14 melanoma
  TGI: > 100000 nM
MCF7 breast
  TGI: > 100000 nM
MDA-MB-231 breast
  TGI: > 100000 nM
MDA-MB-435
  TGI: > 100000 nM
MOLT-4 leukemia
  TGI: > 100000 nM
NCI-H226 lung
  TGI: > 100000 nM
NCI-H23 lung
  TGI: > 100000 nM
NCI-H460 lung
  TGI: > 100000 nM
NCI-H522 lung
  TGI: > 100000 nM
NCI/ADR-RES ovarian
  TGI: > 100000 nM
OVCAR-3 ovarian
  TGI: > 100000 nM
OVCAR-4 ovarian
  TGI: > 100000 nM
OVCAR-5 ovarian
  TGI: > 100000 nM
OVCAR-8 ovarian
  TGI: > 100000 nM
PC-3 prostate
  TGI: > 100000 nM
RPMI-8226 leukemia
  TGI: > 100000 nM
RXF 393 renal
  TGI: > 100000 nM
SF-268 CNS
  TGI: > 100000 nM
SF-295 CNS
  TGI: > 100000 nM
SF-539 CNS
  TGI: > 100000 nM
SK-MEL-2 melanoma
  TGI: > 100000 nM
SK-MEL-28 melanoma
  TGI: > 100000 nM
SK-MEL-5 melanoma
  TGI: > 100000 nM
SK-OV-3 ovarian
  TGI: > 100000 nM
SN12C renal
  TGI: > 100000 nM
SNB-75 CNS
  TGI: > 100000 nM
SR leukemia
  TGI: > 100000 nM
SW-620 colon
  TGI: > 100000 nM
T-47D breast
  TGI: > 100000 nM
TK-10 renal
  TGI: > 100000 nM
U251 CNS
  TGI: > 100000 nM
UACC-257 melanoma
  TGI: > 100000 nM
UACC-62 melanoma
  TGI: > 100000 nM
UO-31 renal
  TGI: > 100000 nM

## O=C(/C=C/c1ccc(O)c(O)c1)NCCc1ccc(-c2ccccc2)cc1
786-0 renal
  TGI: > 100000 nM
A498 renal
  TGI: > 100000 nM
A549 NSCLC
  TGI: > 100000 nM
BT-549 breast
  TGI: > 100000 nM
CAKI-1 renal
  TGI: > 100000 nM
CCRF-CEM leukemia
  TGI: > 100000 nM
COLO 205 colon
  TGI: > 100000 nM
DU-145 prostate
  TGI: > 100000 nM
EKVX NSCLC
  TGI: > 100000 nM
HCC-2998 colon
  TGI: > 100000 nM
HCT-116 colon
  TGI: > 100000 nM
HCT-15 colon
  TGI: > 100000 nM
HL-60(TB) leukemia
  TGI: > 100000 nM
HOP-62 NSCLC
  TGI: > 100000 nM
HS 578T breast
  TGI: > 100000 nM
HT29 colon
  TGI: > 100000 nM
K-562 leukemia
  TGI: 80400 nM
KM12 colon
  TGI: > 100000 nM
M14 melanoma
  TGI: > 100000 nM
MALME-3M melanoma
  TGI: 53900 nM
MCF7 breast
  TGI: > 100000 nM
MOLT-4 leukemia
  TGI: > 100000 nM
NCI-H23 lung
  TGI: > 100000 nM
NCI-H460 lung
  TGI: > 100000 nM
NCI-H522 lung
  TGI: > 100000 nM
NCI/ADR-RES ovarian
  TGI: > 100000 nM
OVCAR-3 ovarian
  TGI: 65700 nM
OVCAR-4 ovarian
  TGI: > 100000 nM
OVCAR-5 ovarian
  TGI: > 100000 nM
OVCAR-8 ovarian
  TGI: > 100000 nM
PC-3 prostate
  TGI: > 100000 nM
RPMI-8226 leukemia
  TGI: > 100000 nM
RXF 393 renal
  TGI: > 100000 nM
SF-268 CNS
  TGI: > 100000 nM
SF-295 CNS
  TGI: > 100000 nM
SF-539 CNS
  TGI: > 100000 nM
SK-MEL-2 melanoma
  TGI: > 100000 nM
SK-MEL-28 melanoma
  TGI: > 100000 nM
SK-MEL-5 melanoma
  TGI: > 100000 nM
SK-OV-3 ovarian
  TGI: > 100000 nM
SNB-19 CNS
  TGI: > 100000 nM
SNB-75 CNS
  TGI: > 100000 nM
SW-620 colon
  TGI: > 100000 nM
T-47D breast
  TGI: > 100000 nM
TK-10 renal
  TGI: 63300 nM
UACC-257 melanoma
  TGI: > 100000 nM
UO-31 renal
  TGI: > 100000 nM

## COc1ccc2c(c1)C(=O)c1c-2n(CCCN)c(=O)c2cc(OC)c(OC)cc12
786-0 renal
  GI50: 146 nM
  TGI: 445 nM
A498 renal
  GI50: 1890 nM
  TGI: 5590 nM
A549 NSCLC
  GI50: 26.7 nM
  TGI: 182 nM
ACHN renal
  GI50: 39.7 nM
  TGI: 1140 nM
CAKI-1 renal
  GI50: 61.9 nM
  TGI: 467 nM
CCRF-CEM leukemia
  GI50: < 10 nM
DU-145 prostate
  GI50: < 10 nM
  TGI: 153 nM
EKVX NSCLC
  GI50: 1830 nM
  TGI: 3670 nM
HCC-2998 colon
  GI50: 109 nM
  TGI: 294 nM
HCT-116 colon
  GI50: 28.7 nM
  TGI: 181 nM
HCT-15 colon
  GI50: 229 nM
  TGI: 1180 nM
HL-60(TB) leukemia
  GI50: < 24.5 nM
HOP-62 NSCLC
  GI50: < 10 nM
  TGI: 133 nM
HOP-92 NSCLC
  GI50: 424 nM
  TGI: 2340 nM
HS 578T breast
  GI50: 2200 nM
  TGI: 4810 nM
HT29 colon
  GI50: 68.4 nM
  TGI: 214 nM
IGROV1 ovarian
  GI50: 154 nM
  TGI: 976 nM
KM12 colon
  GI50: 169 nM
  TGI: 627 nM
LOX IMVI melanoma
  GI50: 52.9 nM
  TGI: 554 nM
MALME-3M melanoma
  GI50: 1140 nM
  TGI: 3000 nM
MDA-MB-231 breast
  GI50: 570 nM
  TGI: 1860 nM
MDA-MB-435
  GI50: 1330 nM
  TGI: 2860 nM
MOLT-4 leukemia
  GI50: < 10 nM
NCI-H460 lung
  GI50: < 10 nM
  TGI: > 100000 nM
NCI-H522 lung
  GI50: < 10 nM
  TGI: 1030 nM
NCI/ADR-RES ovarian
  GI50: 405 nM
  TGI: 5400 nM
OVCAR-3 ovarian
  GI50: 203 nM
  TGI: 1380 nM
OVCAR-5 ovarian
  GI50: 1590 nM
  TGI: 3010 nM
PC-3 prostate
  GI50: 205 nM
  TGI: 1270 nM
RXF 393 renal
  GI50: 399 nM
  TGI: 1880 nM
SF-268 CNS
  GI50: 515 nM
SF-295 CNS
  GI50: < 10 nM
  TGI: 1040 nM
SF-539 CNS
  GI50: 164 nM
  TGI: 1290 nM
SK-MEL-2 melanoma
  GI50: 2550 nM
SK-MEL-28 melanoma
  GI50: 8190 nM
  TGI: 29100 nM
SK-MEL-5 melanoma
  GI50: 283 nM
  TGI: 1930 nM
SK-OV-3 ovarian
  GI50: 499 nM
  TGI: 10700 nM
SN12C renal
  GI50: 112 nM
  TGI: 1510 nM
SNB-75 CNS
  GI50: 1160 nM
  TGI: 2550 nM
SW-620 colon
  GI50: 55.4 nM
  TGI: 1980 nM
TK-10 renal
  GI50: 1450 nM
  TGI: 2990 nM
U251 CNS
  GI50: 49.1 nM
  TGI: 1630 nM
UACC-257 melanoma
  GI50: 3580 nM
  TGI: 19300 nM
UACC-62 melanoma
  GI50: 299 nM
  TGI: 1930 nM
UO-31 renal
  GI50: 1190 nM
  TGI: 2720 nM
